Experimental data from patent publication US20140120232A1, “ACID TASTE/ACID SMELL-REDUCING AGENT” (T. HASEGAWA CO., LTD., priority 2011, published 2014).

Test: Sensory evaluation of Vermont drink containing the agent
Settings: ten panels
Procedure: Water was added to a mixture of 10 g of apple-cider vinegar (acetic acid: 4.8%), 3 g of honey, 7 g of fructose-glucose liquid sugar mixed with sugar, 0.02 g of citric acid, 0.002 g of trisodium citrate, and 0.1 g of a Vermont flavor (manufactured by T. Hasegawa Co., Ltd.) to give a total amount of 100 mL. To the resulting mixture was added (Z,Z)-4,7-tridecadienal as the acid taste and/or acid smell-reducing agent of the present invention in concentrations shown in the following Table 1 to give Vermont drinks containing the agent.
Sensory evaluation of each drink was carried out by ten panels. […] The piercing aroma characteristic to aldehydes is a characteristic aroma common to every aldehyde and refers to an irritant off-smell giving an image of deteriorated oils and fats, soap, metals, Houttuynia cordata, etc. The judgment of smell was performed by comparing the effects at different concentrations of the acid taste and/or acid smell-reducing agent, and a concentration giving the highest acid taste/acid smell quality was selected. […]

## CCCCC/C=C/C/C=C/C=C/C=O [(E,E,E)-2,4,7-tridecatrienal]
0.005 ppt
  A: number of panels, acid taste/acid smell extreme and cause irritation: 10
  B: number of panels, acid taste/acid smell slightly strong and slightly cause irritation: 0
  C: number of panels, acid taste/acid smell slightly unpleasant: 0
  Flavor judgment: number of panels who judged acid taste/acid smell quality the highest: 0
  N: number of panels, irritation of acid reduced to give a mild acid taste: 0
  X: number of panels, acid taste reduced but piercing odor characteristic to aldehydes unpleasant: 0
0.02 ppt
  A: number of panels, acid taste/acid smell extreme and cause irritation: 10
  B: number of panels, acid taste/acid smell slightly strong and slightly cause irritation: 0
  C: number of panels, acid taste/acid smell slightly unpleasant: 0
  Flavor judgment: number of panels who judged acid taste/acid smell quality the highest: 0
  N: number of panels, irritation of acid reduced to give a mild acid taste: 0
  X: number of panels, acid taste reduced but piercing odor characteristic to aldehydes unpleasant: 0
0.1 ppt
  A: number of panels, acid taste/acid smell extreme and cause irritation: 10
  B: number of panels, acid taste/acid smell slightly strong and slightly cause irritation: 0
  C: number of panels, acid taste/acid smell slightly unpleasant: 0
  Flavor judgment: number of panels who judged acid taste/acid smell quality the highest: 0
  N: number of panels, irritation of acid reduced to give a mild acid taste: 0
  X: number of panels, acid taste reduced but piercing odor characteristic to aldehydes unpleasant: 0
0.2 ppt
  A: number of panels, acid taste/acid smell extreme and cause irritation: 9
  B: number of panels, acid taste/acid smell slightly strong and slightly cause irritation: 1
  C: number of panels, acid taste/acid smell slightly unpleasant: 0
  Flavor judgment: number of panels who judged acid taste/acid smell quality the highest: 0
  N: number of panels, irritation of acid reduced to give a mild acid taste: 0
  X: number of panels, acid taste reduced but piercing odor characteristic to aldehydes unpleasant: 0
0.5 ppt
  A: number of panels, acid taste/acid smell extreme and cause irritation: 7
  B: number of panels, acid taste/acid smell slightly strong and slightly cause irritation: 1
  C: number of panels, acid taste/acid smell slightly unpleasant: 2
  Flavor judgment: number of panels who judged acid taste/acid smell quality the highest: 0
  N: number of panels, irritation of acid reduced to give a mild acid taste: 0
  X: number of panels, acid taste reduced but piercing odor characteristic to aldehydes unpleasant: 0
1 ppb
  A: number of panels, acid taste/acid smell extreme and cause irritation: 0
  B: number of panels, acid taste/acid smell slightly strong and slightly cause irritation: 0
  C: number of panels, acid taste/acid smell slightly unpleasant: 2
  Flavor judgment: number of panels who judged acid taste/acid smell quality the highest: 0
  N: number of panels, irritation of acid reduced to give a mild acid taste: 4
  X: number of panels, acid taste reduced but piercing odor characteristic to aldehydes unpleasant: 4
1 ppt
  A: number of panels, acid taste/acid smell extreme and cause irritation: 0
  B: number of panels, acid taste/acid smell slightly strong and slightly cause irritation: 7
  C: number of panels, acid taste/acid smell slightly unpleasant: 3
  Flavor judgment: number of panels who judged acid taste/acid smell quality the highest: 0
  N: number of panels, irritation of acid reduced to give a mild acid taste: 1
  X: number of panels, acid taste reduced but piercing odor characteristic to aldehydes unpleasant: 0
5 ppt
  A: number of panels, acid taste/acid smell extreme and cause irritation: 0
  B: number of panels, acid taste/acid smell slightly strong and slightly cause irritation: 2
  C: number of panels, acid taste/acid smell slightly unpleasant: 3
  Flavor judgment: number of panels who judged acid taste/acid smell quality the highest: 2
  N: number of panels, irritation of acid reduced to give a mild acid taste: 5
  X: number of panels, acid taste reduced but piercing odor characteristic to aldehydes unpleasant: 0
10 ppb
  A: number of panels, acid taste/acid smell extreme and cause irritation: 0
  B: number of panels, acid taste/acid smell slightly strong and slightly cause irritation: 0
  C: number of panels, acid taste/acid smell slightly unpleasant: 2
  Flavor judgment: number of panels who judged acid taste/acid smell quality the highest: 0
  N: number of panels, irritation of acid reduced to give a mild acid taste: 2
  X: number of panels, acid taste reduced but piercing odor characteristic to aldehydes unpleasant: 6
20 ppt
  A: number of panels, acid taste/acid smell extreme and cause irritation: 0
  B: number of panels, acid taste/acid smell slightly strong and slightly cause irritation: 1
  C: number of panels, acid taste/acid smell slightly unpleasant: 3
  Flavor judgment: number of panels who judged acid taste/acid smell quality the highest: 5
  N: number of panels, irritation of acid reduced to give a mild acid taste: 6
  X: number of panels, acid taste reduced but piercing odor characteristic to aldehydes unpleasant: 0
50 ppb
  A: number of panels, acid taste/acid smell extreme and cause irritation: 0
  B: number of panels, acid taste/acid smell slightly strong and slightly cause irritation: 0
  C: number of panels, acid taste/acid smell slightly unpleasant: 0
  Flavor judgment: number of panels who judged acid taste/acid smell quality the highest: 0
  N: number of panels, irritation of acid reduced to give a mild acid taste: 3
  X: number of panels, acid taste reduced but piercing odor characteristic to aldehydes unpleasant: 7
100 ppt
  A: number of panels, acid taste/acid smell extreme and cause irritation: 0
  B: number of panels, acid taste/acid smell slightly strong and slightly cause irritation: 2
  C: number of panels, acid taste/acid smell slightly unpleasant: 2
  Flavor judgment: number of panels who judged acid taste/acid smell quality the highest: 3
  N: number of panels, irritation of acid reduced to give a mild acid taste: 6
  X: number of panels, acid taste reduced but piercing odor characteristic to aldehydes unpleasant: 0
500 ppt
  A: number of panels, acid taste/acid smell extreme and cause irritation: 0
  B: number of panels, acid taste/acid smell slightly strong and slightly cause irritation: 0
  C: number of panels, acid taste/acid smell slightly unpleasant: 4
  Flavor judgment: number of panels who judged acid taste/acid smell quality the highest: 0
  N: number of panels, irritation of acid reduced to give a mild acid taste: 4
  X: number of panels, acid taste reduced but piercing odor characteristic to aldehydes unpleasant: 2
